Values joined by “and” are separate entries in the source; they are usually repeats but may differ in a detail not shown here. Equal entries are not always repeated.
Key:
[1] = Body weight of mice on Western Diet given low or high dose T2; format: in vivo; conditions: for Body weight (Ave) / Body weight: LDLr+/− mice
Protocol: (§1) This corresponds to a dosage for an 80 kg human of about 20-200 mg/day, or a low dose of about 0.2-0.3 mg/kg of body weight to a high dose of about 2-3 mg/kg of body weight. One will appreciate, however, that some subjects (e.g., subjects having very low LDL receptor function) may receive higher doses, depending on need. likewise, some subjects may receive lower doses, which again depends on need. Mice in the study were fed a standard lab chow referred to as the “Western Diet.” The overall level of fat and the saturated nature of the fat are representative diets typical in the industrialized west that are linked to risk of cardiovascular disease in humans. The formula is used primarily with genetically manipulated rodent models that are susceptible to high cholesterol and cardiovascular disease. The diet may also be useful in diet-induced obesity, diabetes, and metabolic syndrome models. High cholesterol, obesity, and diabetes are each associated increased risk for cardiovascular disease. The composition of the Western Diet is shown below. C57 is a wild-type strain, LDLr+/− are a strain carrying one functional copy of the LDLr gene, and the LDLr0 animals are total LDLr knockouts. The LDLr gene encodes for the LDL receptor protein, which is responsible for scavenging LDL with bound cholesterol from the blood and transporting it into cells. Both heterozygous and homozygous LDLr knockout animals develop very high serum cholesterol levels and are considered to be a good model for heterozygous and homozygous familial hypercholesterolemia in humans. […] LDLr knockout animals have zero LDL receptor function.

[2] = system: rats; conditions: 250 mcg/kg p.o. q.d. for 30 days, cited from earlier work
[3] = system: C57, LDLr+/− and LDLr0 mice; assay: Blood sugar (serum glucose) in mice on Western Diet given daily oral T2; format: in vivo; parameters: Blood Sugar / Blood Sugar Ave: unit not given here; conditions: for Blood Sugar Ave / Blood Sugar: Western Diet
Protocol: as §1

[4] = system: C57, LDLr+/− and LDLr0 mice; assay: Serum cholesterol in mice on Western Diet given daily oral T2; format: in vivo; parameters: Cholesterol / Cholesterol (Ave): unit not given here; conditions: for lowered cholesterol, average: vs vehicle; for Cholesterol (Ave): group average; for Cholesterol: individual animal
Protocol: as §1

[5] = system: thyroid receptor homodimer; conditions: in contrast to T3; cited from earlier work

Compound: N[C@@H](Cc1cc(I)c(Oc2ccc(O)cc2)c(I)c1)C(=O)O [T2, (2S)-2-amino-3-[4-(4-hydroxyphenoxy)-3,5-diiodophenyl]propanoic acid]
- Body weight (Ave) ([1]; High Dose T2 2.5 mg/kg daily oral, Day 5, group average): 29.7 g
- Body weight ([1]; High Dose T2 2.5 mg/kg daily oral, Day 5, individual animal, 2.5 mg/kg, in g (unit assumed)): 32.3 and 32.9 and 28.9 and 30.4 and 27.6 and 26.3
- Body weight (Ave) ([1]; Low Dose T2 0.25 mg/kg daily oral, Day 1, group average): 26.7 g
- Body weight ([1]; Low Dose T2 0.25 mg/kg daily oral, Day 1, individual animal, 0.25 mg/kg, in g (unit assumed)): 28.2 and 29.0 and 24.7 and 26.4 and 25.0 and 26.6
- Body weight (Ave) ([1]; Low Dose T2 0.25 mg/kg daily oral, Day 2, group average): 28.1 g
- Body weight ([1]; Low Dose T2 0.25 mg/kg daily oral, Day 2, individual animal, 0.25 mg/kg, in g (unit assumed)): 29.4 and 30.6 and 26.6 and 27.8 and 26.1 and 28.2
- Body weight (Ave) ([1]; Low Dose T2 0.25 mg/kg daily oral, Day 3, group average): 28.6 g
- Body weight ([1]; Low Dose T2 0.25 mg/kg daily oral, Day 3, individual animal, 0.25 mg/kg, in g (unit assumed)): 29.7 and 31.4 and 27.2 and 28.1 and 26.3 and 28.8
- Body weight (Ave) ([1]; Low Dose T2 0.25 mg/kg daily oral, Day 4, group average): 27.6 g
- Body weight ([1]; Low Dose T2 0.25 mg/kg daily oral, Day 4, individual animal, 0.25 mg/kg, in g (unit assumed)): 28.8 and 30.3 and 26.2 and 27.4 and 25.8 and 27.3
- Body weight (Ave) ([1]; Low Dose T2 0.25 mg/kg daily oral, Day 5, group average): 28.5 g
- Body weight ([1]; Low Dose T2 0.25 mg/kg daily oral, Day 5, individual animal, 0.25 mg/kg, in g (unit assumed)): 29.5 and 31.3 and 27.3 and 28.4 and 26.6 and 27.9
- Body weight (Ave) ([1]; Low Dose T2 0.25 mg/kg daily oral, Day 6, group average): 29.2 g
- Body weight ([1]; Low Dose T2 0.25 mg/kg daily oral, Day 6, individual animal, 0.25 mg/kg, in g (unit assumed)): 30.7 and 32.4 and 28.5 and 29.1 and 26.7 and 27.9
- Body weight (Ave) ([1]; Low Dose T2 0.25 mg/kg daily oral, Day 7, group average): 30 g
- Body weight ([1]; Low Dose T2 0.25 mg/kg daily oral, Day 7, individual animal, 0.25 mg/kg): 31.0 and 32.7 and 29.6 (2×) and 28.2 and 29.0
- effect on weight gain ([1]; low and high dose T2, all genotypes): did not affect
- decrease in body weight ([2]; compared to controls): 13%
- decrease in hepatic fat mass ([2]; compared to controls): 50%
- increase in hepatic fat oxidation ([2]; compared to controls): 42%
- lowering of cholesterol ([2]; compared to controls): 18%
- lowering of serum triglycerides ([2]; compared to controls): 52%
- heart rate, thyroid gland or heart weight, TSH, free T3, free T4, TSH response to TRH [2]: not accompanied by an increase in heart rate
- Blood Sugar Ave ([3]; C57 mice, 1 Week High Dose T2, group average): 110.0
- Blood Sugar ([3]; C57 mice, 1 Week High Dose T2, individual animals): 74 and 158 and 106 and 120 and 92
- Blood Sugar Ave ([3]; C57 mice, 1 Week Low Dose T2, group average): 170.0
- Blood Sugar ([3]; C57 mice, 1 Week Low Dose T2, individual animals): 151 and 203 and 186 and 190 and 120
- Blood Sugar Ave ([3]; LDLr0 mice, 1 Week High Dose T2, group average): 94.0
- Blood Sugar ([3]; LDLr0 mice, 1 Week High Dose T2, individual animals): 87 and 101
- Blood Sugar Ave ([3]; LDLr0 mice, 1 Week Low Dose T2, group average): 92.0
- Blood Sugar ([3]; LDLr0 mice, 1 Week Low Dose T2, individual animals): 143 and 54 and 79
- Blood Sugar Ave ([3]; LDLr+/− mice, 1 Week High Dose T2, group average): 101.0
- Blood Sugar ([3]; LDLr+/− mice, 1 Week High Dose T2, individual animals): 108 and 99 and 112 and 94 and 113 and 80
- Blood Sugar Ave ([3]; LDLr+/− mice, 1 Week Low Dose T2, group average): 201.0
- Blood Sugar ([3]; LDLr+/− mice, 1 Week Low Dose T2, individual animals): 202 and 146 and 235 and 171 and 242 and 210
- lowered blood sugar levels, average ([3]; all genetic groups (C57, LDLr+/−, LDLr0), high dose T2 2.5 mg/kg daily oral, vs controls): 45-50%
- lowered cholesterol, average ([4]; C57 animals, high dose T2 2.5 mg/kg daily oral): about 67%
- lowered cholesterol, average ([4]; C57 animals, low dose T2 0.25 mg/kg daily oral): about 38%
- Cholesterol (Ave) ([4]; C57 mice, 1 Week High Dose, T2 2.5 mg/kg daily oral): 60.8
- Cholesterol ([4]; C57 mice, 1 Week High Dose, T2 2.5 mg/kg daily oral, 2.5 mg/kg): 41.312 and 53.718 and 75.711 and 62.741 and 70.636
- Cholesterol (Ave) ([4]; C57 mice, 1 Week Low Dose, T2 0.25 mg/kg daily oral): 113.5
- Cholesterol ([4]; C57 mice, 1 Week Low Dose, T2 0.25 mg/kg daily oral, 0.25 mg/kg): 96.130 and 114.249 and 104.366 and 114.798 and 137.858
- Cholesterol (Ave) ([4]; LDLr0 mice (first group), 1 Week High Dose, T2 2.5 mg/kg daily oral): 320.4
- Cholesterol ([4]; LDLr0 mice (first group), 1 Week High Dose, T2 2.5 mg/kg daily oral, 2.5 mg/kg): 303.529 and 337.364
- Cholesterol (Ave) ([4]; LDLr0 mice (first group), 1 Week Low Dose, T2 0.25 mg/kg daily oral): 823.5
- Cholesterol ([4]; LDLr0 mice (first group), 1 Week Low Dose, T2 0.25 mg/kg daily oral, 0.25 mg/kg): 1063.848 and 593.252 and 813.532
- Cholesterol (Ave) ([4]; LDLr0 mice (second group), 1 Week Low Dose, T2 0.25 mg/kg daily oral): 930.5
- Cholesterol ([4]; LDLr0 mice (second group), 1 Week Low Dose, T2 0.25 mg/kg daily oral, 0.25 mg/kg): 611.760 and 750.720 and 813.250 and 1112.010 and 1167.590 and 438.070 and 1000.840 and 1549.720
- Cholesterol (Ave) ([4]; LDLr0 mice (second group), 2 Week Low Dose, T2 0.25 mg/kg daily oral): 1026.8
- Cholesterol ([4]; LDLr0 mice (second group), 2 Week Low Dose, T2 0.25 mg/kg daily oral, 0.25 mg/kg): 996.905 and 1035.325 and 944.755 and 988.670 and 1092.965 and 524.830 and 1189.025 and 1441.530
- lowered cholesterol, average ([4]; LDLr knockout animals, high dose T2 2.5 mg/kg daily oral): about 80%
- lowered cholesterol, average ([4]; LDLr knockout animals, low dose T2 0.25 mg/kg daily oral): about 46%
- lowered cholesterol, average ([4]; LDLr+/− animals, high dose T2 2.5 mg/kg daily oral): about 67%
- lowered cholesterol, average ([4]; LDLr+/− animals, low dose T2 0.25 mg/kg daily oral): about 26%
- Cholesterol (Ave) ([4]; LDLr+/− mice, 1 Week High Dose, T2 2.5 mg/kg daily oral): 93.8
- Cholesterol ([4]; LDLr+/− mice, 1 Week High Dose, T2 2.5 mg/kg daily oral, 2.5 mg/kg): 84.169 and 99.395 and 103.342 and 102.778 and 66.124 and 107.29
- Cholesterol (Ave) ([4]; LDLr+/− mice, 1 Week Low Dose, T2 0.25 mg/kg daily oral): 188.8
- Cholesterol ([4]; LDLr+/− mice, 1 Week Low Dose, T2 0.25 mg/kg daily oral, 0.25 mg/kg): 185.075 and 229.548 and 196.605 and 160.917 and 172.447 and 188.370
- effect on thyroid receptor homodimer formation [5]: no effect

— patent US20120065267A1, “COMPOSITIONS INCLUDING 3,5-L-T2 AND METHODS OF USE THEREOF” (priority 2010, published 2012)
